Experimental data from patent publication US6479435B1, “Diaryl ethers and processes for their preparation and herbicidal and desiccant compositions containing them” (ISK Americas Incorporated, priority 1997, dated 2002).

Key:
Assay type in all cases: in vivo
[1] = test system: Johnsongrass (Sorghum halepense, SORHA); assay: Pre-emerge greenhouse herbicide test, phytotoxicity rating; conditions: 14 days after application, rating scale 0-100
Summary of the method: (§1)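 Visual 0–100 injury rating (100 = all plants dead) taken 14 days after treatment. Rates of 125–1000 g ai/ha in acetone, 187 l/ha, were sprayed onto soil one day post-sowing; pots were surface-watered to incorporate, then bottom-watered.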

[2] = test system: barnyardgrass (Echinochloa crusgalli, ECHCG); assay: as above; conditions: 14 days after application, rating scale 0-100
Summary of the method: as §1

[3] = test system: green foxtail (Setaria viridis, SETVI); assay: as above; conditions: 14 days after application, rating scale 0-100
Summary of the method: as §1

[4] = test system: ivyleaf morningglory (Ipomoea hederacea, IPOHE); assay: as above; conditions: 14 days after application, rating scale 0-100
Summary of the method: as §1

[5] = test system: lambsquarters (Chenopodium album, CHEAL); assay: as above; conditions: 14 days after application, rating scale 0-100
Summary of the method: as §1

[6] = test system: large crabgrass (Digitaria sanguinalis, DIGSA); assay: as above; conditions: 14 days after application, rating scale 0-100
Summary of the method: as §1

[7] = test system: redroot pigweed (Amaranthus retroflexus, AMARE); assay: as above; conditions: 14 days after application, rating scale 0-100
Summary of the method: as §1

[8] = test system: sicklepod (Cassia obtusifolia, CASOB); assay: as above; conditions: 14 days after application, rating scale 0-100
Summary of the method: as §1

[9] = test system: velvetleaf (Abutilon theophrasti, ABUTH); assay: as above; conditions: 14 days after application, rating scale 0-100
Summary of the method: as §1

[10] = test system: field corn (Zea mays L., var. Dekalb 535, CORN); assay: Pre-emerge greenhouse test, crop damage rating; conditions: 14 days after application, rating scale 0-100
Summary of the method: as §1

[11] = test system: upland rice (Oryza sp., var.Tebonnet, RICE); assay: Pre-emerge greenhouse test, crop damage rating; conditions: 14 days after application, rating scale 0-100
Summary of the method: as §1

[12] = test system: soybean (Glycine max L., var. Pella 86, SOY); assay: Pre-emerge greenhouse test, crop damage rating; set-up: key to SOY crop damage rating: 0 = no damage, 100 = complete death of all plants; conditions: 14 days after application, rating scale 0-100
Summary of the method: as §1

[13] = test system: common ragweed (Ambrosia artemisiifolia L., AMBEL); assay: Post-emerge greenhouse herbicide test, phytotoxicity rating; conditions: 14 days after application, scale 0-100
Description: A standard greenhouse herbicide activity screening system was used to evaluate the herbicidal efficacy and crop safety of these test compounds. Six broadleaf weed species including redroot pigweed (Amaranthus retroflexus, AMARE), velvetleaf (Abutilon theophrasti, ABUTH), sicklepod (Cassia obtusifolia, CASOB), ivyleaf morningglory (Ipomoea hederacea, IPOHE), lambsquarters (Chenopodium album, CHEAL) and common ragweed (Ambrosia artemisiifolia L., AMBEL) were used as test species. Four grass weed species including green foxtail (Setaria viridis, SETVI), barnyardgrass (Echinochloa crusgalli, ECHCG), Johnsongrass (Sorghum halepense, SORHA), and large crabgrass (Digitaria sanguinalis, DIGSA) were also used. In addition, three crop species, field corn (Zea mays L., var. Dekalb 535, CORN), soybean (Glycine max L., var. Pella 86, SOY), and upland rice (Oryza sp., var.Tebonnet, RICE) were included.
All test compounds were dissolved in acetone and applied to the test units in a volume of 187 l/ha. […] Plants were arranged on a shelf so that the top of the canopy (post-emerge) or top of the soil surface (pre-emerge) was 40-45 cm below the nozzle. Pressurized air was used to force the test solution through the nozzle as it was mechanically advanced (via electrically driven chain drive) over the top of all test plants/pots. This application simulates a typical commercial field herbicide application.
In the post-emerge test, a commercial non-ionic surfactant was also included (0.25% v/v) to enhance wetting of the leaf surfaces Qf target plants at rates ranging from 63 g ai/ha to 1000 g ai/ha. For post-emerge tests, seeds were planted 8-21 days prior to the test to allow emergence and good foliage development prior to application of the test substances. At the time of the post-emerge application, plants of all species were usually at the 2-3 leaf stage of development. Post-emerge test units were always bottom-watered.
At 14 days after application of the test materials, phytotoxicity ratings were recorded. A rating scale of 0-100 was used as previously described in Research Methods in Weed Science, 2nd edition, B. Truelove, Ed., Southern Weed Science Society, Auburn University, Auburn, Ala., 1977. Briefly, “0” corresponds to no damage and “100” corresponds to complete death of all plants in the test unit. This scale was used both to determine efficacy against weed species and damage to crop species. Herbicide activity data for various compounds of this invention, which are shown by compound number in Tables 1-9, are shown in Tables 13 and 14.

[14] = test system: Johnsongrass (Sorghum halepense, SORHA); assay: as above; conditions: 14 days after application, scale 0-100
Summary of the method: (§2)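 Scores use a 0 (no damage) to 100 (complete kill) scale, taken 14 days after a foliar spray. Acetone solutions with 0.25% v/v non-ionic surfactant were applied by track sprayer at 187 l/ha and 63-1000 g ai/ha to bottom-watered 2-3 leaf plants.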

[15] = test system: barnyardgrass (Echinochloa crusgalli, ECHCG); assay: as above; conditions: 14 days after application, scale 0-100
Summary of the method: as §2

[16] = test system: green foxtail (Setaria viridis, SETVI); assay: as above; conditions: 14 days after application, scale 0-100
Summary of the method: as §2

[17] = test system: ivyleaf morningglory (Ipomoea hederacea, IPOHE); assay: as above; conditions: 14 days after application, scale 0-100
Summary of the method: as §2

[18] = test system: lambsquarters (Chenopodium album, CHEAL); assay: as above; conditions: 14 days after application, scale 0-100
Summary of the method: as §2

[19] = test system: large crabgrass (Digitaria sanguinalis, DIGSA); assay: as above; conditions: 14 days after application, scale 0-100
Summary of the method: as §2

[20] = test system: redroot pigweed (Amaranthus retroflexus, AMARE); assay: as above; conditions: 14 days after application, scale 0-100
Summary of the method: as §2

[21] = test system: sicklepod (Cassia obtusifolia, CASOB); assay: as above; conditions: 14 days after application, scale 0-100
Summary of the method: as §2

[22] = test system: velvetleaf (Abutilon theophrasti, ABUTH); assay: as above; conditions: 14 days after application, scale 0-100
Summary of the method: as §2

[23] = test system: field corn (Zea mays L., var. Dekalb 535, CORN); assay: Post-emerge greenhouse test, crop damage rating; conditions: 14 days after application, scale 0-100
Summary of the method: as §2

[24] = test system: upland rice (Oryza sp., var.Tebonnet, RICE); assay: Post-emerge greenhouse test, crop damage rating; conditions: 14 days after application, scale 0-100
Summary of the method: as §2

[25] = test system: soybean (Glycine max L., var. Pella 86, SOY); assay: Post-emerge greenhouse test, crop damage rating; set-up: key to crop damage rating SOY: 0-100 scale: 0 = no damage, 100 = complete death of all plants; conditions: 14 days after application, scale 0-100
Summary of the method: as §2

## CCOC(=O)C(C)Oc1ccc(Oc2cc(-n3c(=O)n4n(c3=O)CCCC4)c(F)cc2Cl)c([N+](=O)[O-])c1 (stereo not shown) [Compound 8-41]
[1]; Rate 125 g al/ha
  SORHA phytotoxicity rating: 0
[1]; Rate 250 g al/ha
  SORHA phytotoxicity rating: 0
[2]; Rate 125 g al/ha
  ECHCG phytotoxicity rating: 0
[2]; Rate 250 g al/ha
  ECHCG phytotoxicity rating: 0
[3]; Rate 125 g al/ha
  SETVI phytotoxicity rating: 10
[3]; Rate 250 g al/ha
  SETVI phytotoxicity rating: 50
[4]; Rate 125 g al/ha
  IPOHE phytotoxicity rating: 0
[4]; Rate 250 g al/ha
  IPOHE phytotoxicity rating: 0
[5]; Rate 125 g al/ha
  CHEAL phytotoxicity rating: 70
[5]; Rate 250 g al/ha
  CHEAL phytotoxicity rating: 90
[6]; Rate 125 g al/ha
  DIGSA phytotoxicity rating: 0
[6]; Rate 250 g al/ha
  DIGSA phytotoxicity rating: 0
[7]; Rate 125 g al/ha
  AMARE phytotoxicity rating: 80
[7]; Rate 250 g al/ha
  AMARE phytotoxicity rating: 100
[8]; Rate 125 g al/ha
  CASOB phytotoxicity rating: 0
[8]; Rate 250 g al/ha
  CASOB phytotoxicity rating: 0
[9]; Rate 125 g al/ha
  ABUTH phytotoxicity rating: 0
[9]; Rate 250 g al/ha
  ABUTH phytotoxicity rating: 70
[10]; Rate 125 g al/ha
  CORN crop damage rating: 0
[10]; Rate 250 g al/ha
  CORN crop damage rating: 0
[11]; Rate 125 g al/ha
  RICE crop damage rating: 0
[11]; Rate 250 g al/ha
  RICE crop damage rating: 0
[12]; Rate 125 g al/ha
  SOY crop damage rating: 0
[12]; Rate 250 g al/ha
  SOY crop damage rating: 0
[13]; rate 63 g ai/ha
  phytotoxicity rating AMBEL: 00
[13]; rate 250 g ai/ha
  phytotoxicity rating AMBEL: 30
[14]; rate 63 g ai/ha
  phytotoxicity rating SORHA: 0
[14]; rate 250 g ai/ha
  phytotoxicity rating SORHA: 0
[15]; rate 63 g ai/ha
  phytotoxicity rating ECHCG: 0
[15]; rate 250 g ai/ha
  phytotoxicity rating ECHCG: 0
[16]; rate 63 g ai/ha
  phytotoxicity rating SETVI: 0
[16]; rate 250 g ai/ha
  phytotoxicity rating SETVI: 0
[17]; rate 63 g ai/ha
  phytotoxicity rating IPOHE: 30
[17]; rate 250 g ai/ha
  phytotoxicity rating IPOHE: 100
[18]; rate 63 g ai/ha
  phytotoxicity rating CHEAL: 40
[18]; rate 250 g ai/ha
  phytotoxicity rating CHEAL: 50
[19]; rate 63 g ai/ha
  phytotoxicity rating DIGSA: 0
[19]; rate 250 g ai/ha
  phytotoxicity rating DIGSA: 0
[20]; rate 63 g ai/ha
  phytotoxicity rating AMARE: 40
[20]; rate 250 g ai/ha
  phytotoxicity rating AMARE: 40
[21]; rate 63 g ai/ha
  phytotoxicity rating CASOB: 30
[21]; rate 250 g ai/ha
  phytotoxicity rating CASOB: 100
[22]; rate 63 g ai/ha
  phytotoxicity rating ABUTH: 95
[22]; rate 250 g ai/ha
  phytotoxicity rating ABUTH: 100
[23]; rate 63 g ai/ha
  crop damage rating CORN: 0
[23]; rate 250 g ai/ha
  crop damage rating CORN: 0
[24]; rate 63 g ai/ha
  crop damage rating RICE: 0
[24]; rate 250 g ai/ha
  crop damage rating RICE: 0
[25]; rate 63 g ai/ha
  crop damage rating SOY: 30
[25]; rate 250 g ai/ha
  crop damage rating SOY: 60

## CSc1cccnc1Oc1cc(-n2c(=O)n3n(c2=S)CCCC3)c(F)cc1Cl [Compound 8-43]
[1]; Rate 125 g al/ha
  SORHA phytotoxicity rating: 0
[1]; Rate 250 g al/ha
  SORHA phytotoxicity rating: 0
[2]; Rate 125 g al/ha
  ECHCG phytotoxicity rating: 0
[2]; Rate 250 g al/ha
  ECHCG phytotoxicity rating: 0
[3]; Rate 125 g al/ha
  SETVI phytotoxicity rating: 100
[3]; Rate 250 g al/ha
  SETVI phytotoxicity rating: 100
[4]; Rate 125 g al/ha
  IPOHE phytotoxicity rating: 0
[4]; Rate 250 g al/ha
  IPOHE phytotoxicity rating: 20
[5]; Rate 125 g al/ha
  CHEAL phytotoxicity rating: 100
[5]; Rate 250 g al/ha
  CHEAL phytotoxicity rating: 100
[6]; Rate 125 g al/ha
  DIGSA phytotoxicity rating: 90
[6]; Rate 250 g al/ha
  DIGSA phytotoxicity rating: 100
[7]; Rate 125 g al/ha
  AMARE phytotoxicity rating: 20
[7]; Rate 250 g al/ha
  AMARE phytotoxicity rating: 70
[8]; Rate 125 g al/ha
  CASOB phytotoxicity rating: 20
[8]; Rate 250 g al/ha
  CASOB phytotoxicity rating: 30
[9]; Rate 125 g al/ha
  ABUTH phytotoxicity rating: 10
[9]; Rate 250 g al/ha
  ABUTH phytotoxicity rating: 30
[10]; Rate 125 g al/ha
  CORN crop damage rating: 0
[10]; Rate 250 g al/ha
  CORN crop damage rating: 0
[11]; Rate 125 g al/ha
  RICE crop damage rating: 20
[11]; Rate 250 g al/ha
  RICE crop damage rating: 20
[12]; Rate 125 g al/ha
  SOY crop damage rating: 0
[12]; Rate 250 g al/ha
  SOY crop damage rating: 0
[13]; rate 63 g ai/ha
  phytotoxicity rating AMBEL: 100
[13]; rate 250 g ai/ha
  phytotoxicity rating AMBEL: 100
[14]; rate 63 g ai/ha
  phytotoxicity rating SORHA: 20
[14]; rate 250 g ai/ha
  phytotoxicity rating SORHA: 30
[15]; rate 63 g ai/ha
  phytotoxicity rating ECHCG: 20
[15]; rate 250 g ai/ha
  phytotoxicity rating ECHCG: 30
[16]; rate 63 g ai/ha
  phytotoxicity rating SETVI: 40
[16]; rate 250 g ai/ha
  phytotoxicity rating SETVI: 60
[17]; rate 63 g ai/ha
  phytotoxicity rating IPOHE: 100
[17]; rate 250 g ai/ha
  phytotoxicity rating IPOHE: 100
[18]; rate 63 g ai/ha
  phytotoxicity rating CHEAL: 90
[18]; rate 250 g ai/ha
  phytotoxicity rating CHEAL: 100
[19]; rate 63 g ai/ha
  phytotoxicity rating DIGSA: 0
[19]; rate 250 g ai/ha
  phytotoxicity rating DIGSA: 20
[20]; rate 63 g ai/ha
  phytotoxicity rating AMARE: 60
[20]; rate 250 g ai/ha
  phytotoxicity rating AMARE: 90
[21]; rate 63 g ai/ha
  phytotoxicity rating CASOB: 95
[21]; rate 250 g ai/ha
  phytotoxicity rating CASOB: 100
[22]; rate 63 g ai/ha
  phytotoxicity rating ABUTH: 100
[22]; rate 250 g ai/ha
  phytotoxicity rating ABUTH: 100
[23]; rate 63 g ai/ha
  crop damage rating CORN: 20
[23]; rate 250 g ai/ha
  crop damage rating CORN: 30
[24]; rate 63 g ai/ha
  crop damage rating RICE: 10
[24]; rate 250 g ai/ha
  crop damage rating RICE: 30
[25]; rate 63 g ai/ha
  crop damage rating SOY: 80
[25]; rate 250 g ai/ha
  crop damage rating SOY: 100
